Like-named read-outs stand apart in the source and are kept apart here. Ends that are not written are not given here.
Tests used:
Assay type in all cases: cell-based
Alternaria brassicae = experiment: Antifungal growth inhibition test in liquid medium
Rhizoctonia solani myc = experiment: Antifungal growth inhibition test in liquid medium
Piricularia oryzae sp = tested on: Piricularia oryzae sp
Escherichia coli CIP548 = experiment: Bacterial growth inhibition test in Petri dish (solid medium), MIC; settings: MIC extrapolated from inhibition diameter vs log10 concentration
Salmonella sp. = experiment: as above; settings: MIC extrapolated from inhibition diameter vs log10 concentration
Protocol: (§1) Deux tests ont été utilisés pour mesurer l'activité antibactérienne des pseudopeptides, un test d'inhibition de la croissance bactérienne en microplaques (de 96 puits) en milieu liquide et un test d'inhibition de la croissance bactérienne en boîte de Pétri en milieu solide. • * Test en microplaques: La culture bactérienne à tester est prélevée en phase exponentielle, puis diluée au 1/500^ème dans du milieu liquide TSB frais. Chaque puits de la microplaque est rempli avec 100 µl de suspension bactérienne diluée. Dans le premier puits, 100 µl de l'échantillon de pseudopeptide à tester est ajouté à la suspension bactérienne, puis l'échantillon est dilué de 2 en 2 en transférant d'un puits à l'autre 100 µl de suspension. La lecture de la microplaque se fait en mesurant la densité optique à […] (DO600nm) après 24h d'incubation à 28°C ou 37°C selon les bactéries cibles. Connaissant la concentration en pseudopeptide de l'échantillon de départ, ce test permet de déterminer la valeur de la CMI (Concentration Minimale d'Inhibition de la croissance bactérienne). Dans ce test, la CMI correspond à la concentration de l'échantillon pour lequel la DO600nm est inférieure à celle du témoin de culture. • * Test en boîte de Pétri: La culture bactérienne à tester est prélevée en phase exponentielle, puis incorporée à 10 ml d'une gélose dite "sous-couche" (Agarose 1% poids/vol; NaCl 100 mM; Trypcase 0.03 % poids/vol; Tampon phosphate 10 mM pH7.4) à raison de 2.10^5 bactéries/ml. Le mélange est coulé dans une boîte de Pétri ordinaire. 9 puits d'environ 10 µl de volume sont formés dans la "sous-couche" à l'aide d'un embout de pipette stérile de 10 ml. Ces puits sont remplis avec une série de dilutions des pseudopeptides à tester (concentration initiale 500 µg/ml, et dilution de deux en deux jusqu'à 1,95 µg/ml). Après diffusion à température ambiante pendant 2h, une gélose dite "sur-couche" (Agarose 1% wt/vol; Trypcase 6 % wt/vol; Tampon phosphate 10 mM pH7.4) est ajoutée sur la sous-couche à raison de 5 à 10 ml. Après solidification, l'ensemble est mis à incuber pendant une nuit. Le diamètre d'inhibition de la culture bactérienne autour de chaque puits est mesuré en mm; il existe une relation linéaire entre le diamètre d'inhibition et le log10 de la concentration en pseudopeptide qui permet de déterminer par extrapolation la valeur de la CMI.
Une première série de résultats a été obtenue en utilisant le test en boîte de Pétri vis-à-vis de bactéries non pathogènes issues de la collection de Travaux pratiques du laboratoire de Pathologie Comparée de l'Université de Montpellier (France). Dans cette série, les pseudopeptides des pics 5, 7, 8,10 et 11 ont été testés (Tableau 4).

Serratia entomophila = experiment: as above; settings: MIC extrapolated from inhibition diameter vs log10 concentration
Staphylococcus aureus [1] = experiment: as above; settings: MIC extrapolated from inhibition diameter vs log10 concentration
[2] = tested on: Staphylococcus epidermidis; experiment: as above; settings: MIC extrapolated from inhibition diameter vs log10 concentration
Streptococcus Gr. D = experiment: as above; settings: MIC extrapolated from inhibition diameter vs log10 concentration
Enterobacter aerogenes = experiment: Bacterial growth inhibition test in microplates (liquid medium), MIC, nosocomial bacteria; settings: microplate test, TSB, 24h; nosocomial strain
Protocol: as §1
(§2) Une seconde série de résultats a été obtenue en utilisant le test en microplaques vis-à-vis de bactéries nosocomiales issues de la collection du laboratoire de Bactériologie Médicale du Centre Hospitalier Universitaire de Nîmes (France). Dans cette série, seul le pseudopeptide contenu dans la fraction 8 a été testé (Tableau 5).

Enterococcus sp. = experiment: as above; settings: microplate test, TSB, 24h; nosocomial strain
Protocol: as §1, §2

Pseudomonas aeruginosa = experiment: as above; settings: microplate test, TSB, 24h; nosocomial strain
Protocol: as §1, §2

Staphylococcus aureus [3] = experiment: as above; settings: microplate test, TSB, 24h; nosocomial strain
Protocol: as §1, §2

[4] = tested on: Stenotrophomonas maltophilia; experiment: as above; settings: microplate test, TSB, 24h; nosocomial strain
Protocol: as §1, §2

“Composé 8: pseudopeptide du pic n° 8 de Xenorhabdus nematophilus F1; Famille 1: Lys Lys Lys Lys Lys Gly; 1066 Da; structure en Figure 2 (KKKKKG; also: pseudopeptide modifications)” was tested, and the “pourcentage d'inhibition de croissance” value (Alternaria brassicae; 10 ppm) was 82%, the “pourcentage d'inhibition de croissance” value (Alternaria brassicae; 20 ppm) was 82% and the “pourcentage d'inhibition de croissance” value (Alternaria brassicae; 40 ppm) was 83%. The “pourcentage d'inhibition de croissance” value (Rhizoctonia solani myc; 10 ppm) was 56%, the “pourcentage d'inhibition de croissance” value (Rhizoctonia solani myc; 20 ppm) was 91% and the “pourcentage d'inhibition de croissance” value (Rhizoctonia solani myc; 40 ppm) was 93%. For the same substance, the “pourcentage d'inhibition de croissance” value (Piricularia oryzae sp; 10 ppm) was 30%, the “pourcentage d'inhibition de croissance” value (Piricularia oryzae sp; 20 ppm) was 35% and the “pourcentage d'inhibition de croissance” value (Piricularia oryzae sp; 40 ppm) was 45%. The CMI (Escherichia coli CIP548) was 7,5 µg/ml, the CMI (Salmonella sp.) was 30 µg/mL and the CMI (Serratia entomophila) was 30 µg/mL. The CMI (Staphylococcus aureus [1]) was 15 µg/mL, the CMI [2] was 30 µg/mL and the CMI (Streptococcus Gr. D) was 200 µg/mL. The CMI (Enterobacter aerogenes) was 25 µg/mL, the CMI (Enterococcus sp.) was 12,5 µg/ml and the CMI (Pseudomonas aeruginosa) was 12,5 µg/ml. It also gave a CMI (Staphylococcus aureus [3]) of 25 µg/mL and a CMI [4] of 25 µg/mL.

Source: patent publication EP1351977B1, “ANTIMICROBIAL PSEUDOPEPTIDES” (INSTITUT NATIONAL DE LA RECHERCHE AGRONOMIQUE (INRA), priority 2001, dated 2004)
